Results published in patent EP2522332A1, “Use of resveratrol and magnesium-ascorbyl-phosphate” (DSM IP Assets B.V., priority 2011, dated 2012).
Where two headings read alike, the source gives them in different places.

System: SILV
Test: Assessment of gene modulation in normal human epidermal melanocytes (NHEM), RT-qPCR / PCR array
Format: cell-based
Details: for activation at 1000 µg/mL: Homo sapiens, Melanocyte
Procedure: Normal human epidermal melanocytes were cultivated for 24 hours. […] Cells were cultivated for additional 72 hours. All experimental conditions were performed in triplicate.
At the end of the cultivation, the cells were harvested and washed with phosphate buffered saline (PBS) solution and immediately frozen at -80°C. The expression of selected markers was analyzed using RT-qPCR method on mRNA extracted from cells layer for each treatment condition. The differential expression analysis was performed by PCR arrays of the screening format "mQPA H-Melanocyte-64", which focuses on 64 genes selected for their importance in pigmentation and melanocyte biology.
Total RNA was extracted from each sample using TRI-Reagent®. The amount and quality of the RNA was evaluated using a lab-on-a-chip Bioanalyzer (Agilent technologies). Potential contaminants traces of DNA were removed […] The incorporation of fluorescence in amplified DNA was measured continuously during the PCR cycles. […] The value selected for RE calculations is the "output point" (Ct) of the fluorescence curve. For a given marker, the highest is the cycle number; the lowest, is the mRNA quantity. The RE value is expressed in arbitrary units (AU) according to the equation: (((1)/(2)))^NC x 10^6 [formula]
Where NC is the number of cycles.

Oc1ccc(C=Cc2cc(O)cc(O)c2)cc1 [Resveratrol, 3,4',5 trihydroxystilbene]
modulation of the gene SILV (NHEM cells, resveratrol alone 5 micrograms/ml, 72 hours): did not modulate

O=C1O[C@H]([C@@H](O)CO)C(O)=C1OP(=O)(O)O [magnesium-ascorbyl-phosphate, magnesium-L-ascorbyl-2-phosphate]
activation at 1000 µg/mL (NHEM cells treated 72 hours, resveratrol 5 µg/ml, magnesium-ascorbyl-phosphate 1 mg/ml, combination 5 µg/ml + 1 mg/ml, versus control, read-out: SILV (expression level of the gene SILV)): 25%
activation at 1000 µg/mL (NHEM cells, magnesium ascorbyl phosphate 1 mg/ml, 72 hours, read-out: induction of the SILV gene): 25%
